Results from patent US10246490B2 (priority 2014, dated 2019).

Tested on: HVA calcium channel (high-voltage activated calcium ion channel)
Format: cell-based, rat

COC(=O)C1=C(C)NC(C)=C(C(=O)OC)C1c1ccccc1[N+](=O)[O-] [Nifedipine]
current after loading: −734.31 pA
current before loading: −1471.35 pA
inhibition rate (10 μM): 50.09%
